The values that follow come from patent US6875792B2, “Dosage form of L-Methionine S-Sulfoximine” (MSO Pharma LLC, priority 2002, dated 2005).

Structures are written as SMILES. Where two headings read alike, the source gives them in different places. A value given as a limit tells only on which side of the number the result lay.

The target of data set [1] is T1, glutamine synthetase (Rattus norvegicus, UniProt P09606). The note with it: low dose intravenous, 24 hours prior to sacrifice. The procedure: (§1) The Hawkins data is represented with closed circles whereas the comparison tested rats are represented with “+” and open circle symbols. The monkey results are shown with triangles. N represents the number of animals studied.
T1 sequence (P09606 2-373 limits assumed): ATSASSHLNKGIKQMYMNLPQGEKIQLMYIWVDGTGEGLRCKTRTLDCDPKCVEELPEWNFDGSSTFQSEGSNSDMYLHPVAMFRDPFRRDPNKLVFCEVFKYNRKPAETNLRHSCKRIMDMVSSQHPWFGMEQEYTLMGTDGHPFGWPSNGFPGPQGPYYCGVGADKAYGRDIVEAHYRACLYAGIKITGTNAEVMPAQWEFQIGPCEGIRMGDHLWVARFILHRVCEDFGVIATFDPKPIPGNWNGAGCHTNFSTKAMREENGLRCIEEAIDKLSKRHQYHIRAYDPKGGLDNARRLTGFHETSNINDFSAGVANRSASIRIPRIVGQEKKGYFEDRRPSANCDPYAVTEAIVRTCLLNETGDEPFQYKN
(§2) The monkeys who received LSMSO at doses of 5 and 10 mg/kg were anesthetized for a four hour period prior to sacrifice.

The conditions of data set [2]: low doses. An excerpt: As stated above, one unfortunate and well known side effect of MSO is that it is a convulsant.
Data set [3] deals with T1, glutamine synthetase. The note with it: cited from earlier work.
In data set [4] the target is glutamine synthetase (Macaca mulatta, UniProt F7CAM5). The procedure: as §1, §2
Chain of glutamine synthetase (Macaca mulatta, UniProt F7CAM5) (F7CAM5 1-373): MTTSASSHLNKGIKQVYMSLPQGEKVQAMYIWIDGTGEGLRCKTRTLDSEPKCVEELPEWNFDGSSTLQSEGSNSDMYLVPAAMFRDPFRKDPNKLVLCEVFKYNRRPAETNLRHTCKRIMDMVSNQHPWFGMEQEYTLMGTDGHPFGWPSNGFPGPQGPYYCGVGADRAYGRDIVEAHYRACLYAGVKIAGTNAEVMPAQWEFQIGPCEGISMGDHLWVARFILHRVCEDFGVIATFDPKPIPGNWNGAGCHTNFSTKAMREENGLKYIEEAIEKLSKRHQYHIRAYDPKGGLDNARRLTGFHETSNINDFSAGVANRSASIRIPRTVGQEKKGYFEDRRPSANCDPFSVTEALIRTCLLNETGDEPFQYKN
The conditions of data set [5]: cited from earlier work.
The conditions of data set [6]: rats vs dogs; cited from earlier work.
For data set [7] the following is noted: cited from earlier work. This is another data set of the same source.
For data set [8] the following is noted: rats, cited from earlier work; for paroxysmal symptoms: 100 mg/kg and 50 mg/kg, 20 hours; for brain glutamine level versus paroxysmal dose: 100 and 50 mg/kg vs 200 mg/kg, 20 hours after administration.
For data set [9] the following is noted: mice; cited from earlier work.
For data set [10] the following is noted: cited from earlier work. This is another data set of the same source.
Data set [11] deals with glutamine synthetase. The note with it: cited from earlier work.
For data set [12], the target named is γ-glutamylcysteine synthetase (Rattus norvegicus, UniProt P19468). To be noted: cited from earlier work.
Chain of γ-glutamylcysteine synthetase (P48508 whole entry partner, one chain of several): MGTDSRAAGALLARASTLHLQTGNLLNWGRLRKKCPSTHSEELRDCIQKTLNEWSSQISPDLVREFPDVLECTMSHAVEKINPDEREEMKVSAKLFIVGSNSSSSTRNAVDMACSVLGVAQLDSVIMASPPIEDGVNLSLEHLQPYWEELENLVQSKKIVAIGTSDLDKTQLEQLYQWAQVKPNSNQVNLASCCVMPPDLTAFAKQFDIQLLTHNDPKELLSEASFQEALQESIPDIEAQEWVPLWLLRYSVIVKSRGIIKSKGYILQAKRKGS
Data set [13] deals with T1, glutamine synthetase. To be noted: MSO pretreatment, cited from earlier work.
For data set [14] the following is noted: portacaval anastomosis rats infused with ammonium acetate, 150 mg/kg pretreatment; cited from earlier work.
In data set [15] the target is cortical glutamine synthetase (Rattus norvegicus, UniProt P09606). The note with it: model of acute hyperammonemia; cited from earlier work.
Chain of cortical glutamine synthetase (P09606 2-373 limits assumed): as the sequence (P09606 2-373 limits assumed) above
Data set [16] deals with T2, gamma glutamyl cysteine synthetase (Rattus norvegicus, UniProt P19468).
T2 construct: host or cells: rat brain in vivo
T2 sequence (P19468 1-637): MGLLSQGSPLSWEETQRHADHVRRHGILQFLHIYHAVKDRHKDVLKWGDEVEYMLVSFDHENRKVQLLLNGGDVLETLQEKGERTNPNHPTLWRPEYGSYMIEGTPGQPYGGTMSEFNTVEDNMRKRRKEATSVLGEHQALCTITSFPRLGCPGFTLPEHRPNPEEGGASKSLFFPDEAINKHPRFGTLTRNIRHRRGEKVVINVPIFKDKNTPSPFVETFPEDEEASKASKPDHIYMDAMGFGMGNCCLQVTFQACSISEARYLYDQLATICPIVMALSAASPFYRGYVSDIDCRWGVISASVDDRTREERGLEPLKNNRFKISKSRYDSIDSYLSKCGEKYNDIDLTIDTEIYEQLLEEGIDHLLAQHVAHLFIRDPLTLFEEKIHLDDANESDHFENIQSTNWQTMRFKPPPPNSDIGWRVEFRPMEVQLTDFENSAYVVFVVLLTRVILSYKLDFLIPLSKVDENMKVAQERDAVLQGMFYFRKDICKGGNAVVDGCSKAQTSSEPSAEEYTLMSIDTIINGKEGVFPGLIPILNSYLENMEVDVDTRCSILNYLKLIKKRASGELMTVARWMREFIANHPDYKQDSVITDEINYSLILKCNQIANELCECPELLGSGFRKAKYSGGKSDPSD
To be noted: cited from earlier work.

For data set [17] the following is noted: rats; did not affect MSO's inhibition of GS; cited from earlier work.

`CS(=N)(=O)CC[C@H](N)C(=O)O` (stereo partly drawn) [LSMSO, L-methionine S-sulfoximine]: in [1], the “state of the rats prior to sacrifice” value was “awake and asymptomatic”. In addition, the brain glutamine levels entry in data set [2] is given as “lowered”. For the same molecule, in data set [2] (LSMSO alone), the seizures entry is “no seizures”. The “glutamine synthetase inhibition at low doses” value in data set [3] (rats, doses of less than 20 mg/kg) is “dramatic decrease”.
Take `CS(=N)(=O)CC[C@H](N)C(=O)O` (some centres unmarked) [MSO, methionine sulfoximine]: the activity and appetite entry in [4] (one monkey, 2.5 mg/kg, 24 hour period prior to sacrifice) is “normal”. The “sensitivity to the glutamine synthetase inhibiting effect” value in data set [4] (primates compared to rats, low doses, FIG. 1) is “more sensitive”. For the same molecule, the “resistance to MSO relative to dogs” value in data set [5] (monkeys vs dogs) is “approximately 100 times”. The “resistance to MSO relative to dogs” value in [6] is on record as “approximately 100 times”. Also, the tumor regression entry in data set [7] (patients with far-advanced, nonresectable cancer) is “no evidence of tumor regression”. Moreover, the “hepatic or renal function or hematological status” value in [7] (patients, divided doses every 6 or 8 hours) is given as “no change”. In [8], the paroxysmal symptoms result is given as “did not differ in any way from the control animals” and the “brain glutamine level versus paroxysmal dose” value was “decreased to the same degree”. In addition, in [8] (listed as MSI), the paroxysmal symptoms entry was “no paroxysmal symptoms” and the “brain glutamine level versus paroxysmal dose” value is on record as “reduced to the same degree”. Further, in [8] (200 mg/kg), the “seizures at highest dose” value is recorded as “had seizures”. Also, the “in vivo ammonia toxicity” value in data set [9] is “marked decrease”. The “most effective dosage for episodic running behavior to repeated sounds” value in data set [10] (cats and rats) is 7.5 mg/kg. For the same molecule, the “effect at 10 mg/kg” value in data set [10] (cats, 10 mg/kg) is on record as “early convulsive episodes”. Moreover, the “amounts that did not render cats susceptible” value in [10] (cats) is “less than 5 mg/kg”. For the same molecule, the “inhibition at 72 hours” value in [11] (brain, 72 hours) is “remains to a considerable degree”. For the same molecule, the “persistence of inhibitory effect on glutamine synthetase” value in [11] (brain) is “a long as seven days”. The “time of maximal inhibition in the brain” value in data set [11] (single injection) was 24 h. The “inhibition of γ-glutamylcysteine synthetase” value in [12] is “effective inhibitor”. Further, in data set [3] (rats, 5 to 200 mg/kg intraperitoneal), the glutamine synthetase activity result was “decreased in proportion to the dose”. For the same molecule, in data set [3] (rats, 5 to 200 mg/kg intraperitoneal, except at the highest dose of 200 mg/kg), the toxicity entry is reported as “no evidence of toxicity”. For the same molecule, the “time to raised brain concentration of ammonia” value in data set [3] (single intraperitoneal injection) was no more than 2 h. The cortical glutamine levels result in data set [13] (group IV hyperammonemic rats) is “did not increase”. Moreover, in data set [13] (within the brain), the “inhibition of glutamine synthetase activity” value was 64%. Moreover, in data set [14], the brain edema entry is “ameliorated” and the intracranial pressure entry was “did not rise”. Besides, in data set [15], the “inhibition of cortical glutamine synthetase” value is given as 64% and the “prevented increase in cortical glutamine concentration” value is on record as 13 mmol/kg.
On to `CCCCS(=N)(=O)CCC(N)C(=O)O` (centres unmarked) [buthionine sulfoximine], for which the hyperammonemic brain swelling entry in data set [16] is recorded as “did not prevent”.
On to `CSCC[C@H](N)C(=O)O` [methionine], for which the “MSO-induced seizures on administration of methionine” value in [5] (monkeys and dogs) is on record as “suppressed”. Also, the “protection from the convulsant effect of MSO” value in data set [17] is given as “protected”.
